Data taken from patent US20220127232A1, “HISTONE ACETYLTRANSFERASE MODULATORS AND COMPOSITIONS AND USES THEREOF” (The Trustees of Columbia University in the City of New York, priority 2019, published 2022).
Where a name gives a salt, the structure may show the parent alone. Read-outs that look alike come from different tables or passages of the source.

What was measured:
p300 = p300 (Homo sapiens, UniProt Q09472); assay: Histone Acetyltransferase (HAT) in vitro acetylation assay, western blot of H3K27ac / H3K18ac; type: biochemical; details: for H3-Lys 27 EC50 / EC50 / H3-Lys 18 EC50: EC50 for activators; for H3-Lys 27 IC50 / H3-Lys 18 IC50: IC50 for inhibitors
Chain of p300 (Q09472 whole entry, species assumed): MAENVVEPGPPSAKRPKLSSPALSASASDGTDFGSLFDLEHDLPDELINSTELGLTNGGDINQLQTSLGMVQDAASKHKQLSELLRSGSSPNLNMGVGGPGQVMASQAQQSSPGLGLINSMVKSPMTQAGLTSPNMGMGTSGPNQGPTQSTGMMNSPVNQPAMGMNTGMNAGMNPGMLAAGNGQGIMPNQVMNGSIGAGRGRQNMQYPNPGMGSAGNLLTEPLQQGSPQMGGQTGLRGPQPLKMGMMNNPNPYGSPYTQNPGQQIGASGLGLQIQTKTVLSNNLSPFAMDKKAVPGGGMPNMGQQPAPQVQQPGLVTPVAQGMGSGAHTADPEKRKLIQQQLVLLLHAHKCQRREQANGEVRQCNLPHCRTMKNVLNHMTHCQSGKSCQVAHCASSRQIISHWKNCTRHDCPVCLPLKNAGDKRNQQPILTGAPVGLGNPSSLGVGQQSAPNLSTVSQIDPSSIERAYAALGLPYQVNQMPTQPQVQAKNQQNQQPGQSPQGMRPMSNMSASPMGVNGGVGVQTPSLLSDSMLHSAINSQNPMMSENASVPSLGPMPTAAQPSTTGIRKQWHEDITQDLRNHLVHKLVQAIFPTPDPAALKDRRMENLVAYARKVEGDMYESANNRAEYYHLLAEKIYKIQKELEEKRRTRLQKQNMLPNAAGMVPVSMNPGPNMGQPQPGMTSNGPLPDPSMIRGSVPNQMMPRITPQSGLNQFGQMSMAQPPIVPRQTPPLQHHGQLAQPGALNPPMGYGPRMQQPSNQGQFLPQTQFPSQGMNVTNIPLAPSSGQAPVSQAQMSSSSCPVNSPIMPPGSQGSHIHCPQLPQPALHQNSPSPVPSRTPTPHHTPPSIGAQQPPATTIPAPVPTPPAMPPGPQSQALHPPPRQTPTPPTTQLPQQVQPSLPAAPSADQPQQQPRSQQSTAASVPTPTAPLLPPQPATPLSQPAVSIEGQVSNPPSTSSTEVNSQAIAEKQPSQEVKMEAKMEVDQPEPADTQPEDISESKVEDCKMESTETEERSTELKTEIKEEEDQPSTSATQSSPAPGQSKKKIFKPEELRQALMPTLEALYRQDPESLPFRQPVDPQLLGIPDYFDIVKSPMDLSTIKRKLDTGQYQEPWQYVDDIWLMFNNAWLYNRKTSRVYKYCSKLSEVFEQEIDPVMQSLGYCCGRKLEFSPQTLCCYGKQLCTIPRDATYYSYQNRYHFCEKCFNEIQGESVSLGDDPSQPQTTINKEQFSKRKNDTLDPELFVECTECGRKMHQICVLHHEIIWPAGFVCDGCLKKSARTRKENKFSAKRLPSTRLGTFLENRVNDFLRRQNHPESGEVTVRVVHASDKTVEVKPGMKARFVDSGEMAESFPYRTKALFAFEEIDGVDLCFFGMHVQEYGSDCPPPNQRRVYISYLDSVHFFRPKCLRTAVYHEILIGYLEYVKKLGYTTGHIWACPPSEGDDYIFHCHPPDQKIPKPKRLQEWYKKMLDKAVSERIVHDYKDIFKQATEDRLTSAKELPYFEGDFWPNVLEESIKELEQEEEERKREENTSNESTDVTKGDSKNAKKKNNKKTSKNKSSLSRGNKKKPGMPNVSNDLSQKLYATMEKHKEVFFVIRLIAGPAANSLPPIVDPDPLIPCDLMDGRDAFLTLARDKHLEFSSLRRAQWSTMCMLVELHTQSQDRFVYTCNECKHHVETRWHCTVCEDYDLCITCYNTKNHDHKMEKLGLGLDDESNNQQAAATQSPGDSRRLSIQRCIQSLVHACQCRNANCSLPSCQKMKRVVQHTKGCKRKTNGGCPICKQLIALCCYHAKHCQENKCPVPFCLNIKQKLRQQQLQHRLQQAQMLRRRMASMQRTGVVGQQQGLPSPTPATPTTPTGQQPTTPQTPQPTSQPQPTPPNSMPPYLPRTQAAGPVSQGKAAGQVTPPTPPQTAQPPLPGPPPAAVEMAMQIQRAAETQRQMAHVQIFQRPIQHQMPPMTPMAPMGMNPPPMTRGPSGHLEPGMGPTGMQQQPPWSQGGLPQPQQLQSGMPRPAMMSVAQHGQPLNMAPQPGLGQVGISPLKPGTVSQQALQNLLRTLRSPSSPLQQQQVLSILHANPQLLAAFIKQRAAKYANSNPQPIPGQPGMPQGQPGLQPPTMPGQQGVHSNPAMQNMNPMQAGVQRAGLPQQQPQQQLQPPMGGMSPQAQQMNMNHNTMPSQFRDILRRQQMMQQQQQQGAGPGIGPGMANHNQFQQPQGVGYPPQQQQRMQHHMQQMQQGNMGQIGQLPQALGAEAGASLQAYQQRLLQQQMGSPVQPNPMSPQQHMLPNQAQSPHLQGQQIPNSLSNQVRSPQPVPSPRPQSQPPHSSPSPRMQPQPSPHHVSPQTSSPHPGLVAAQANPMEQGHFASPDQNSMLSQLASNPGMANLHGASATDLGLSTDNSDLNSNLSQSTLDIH
Protocol: The aim of the in vitro acetylation assay is to measure the enzymatic activity of the various compounds towards p300.
First, the drug is prepared:
Second, dilute p300 in AM1 buffer to a concentration of 40 ng/μL (final concentration in the reaction 20 ng/μL). This is accomplished by diluting 1 μL of p300 (at 0.4 μg/μL) into […] of AM1 buffer.
Third, prepare the Master Mix. Prepare the Master Mix in low protein binding tubes (ThermoFisher Cat. No. 90410), 20 μL system.
Incubate reactions at 30° C. for 30 minutes.
Incubate reactions at 30° C. for 1 hour.
Fourth, perform the western blot assay. • Add 6.7 μL of Laemmli Sample Buffer 4× (Bio-Rad Laboratories Cat. No. 161-0737) for each reaction and boil samples at 95° C. for 5 min. • Charge 10 μL for each sample in 2 Tris Glycine 4-15% gels (Bio-Rad Laboratories Cat. No. 456-1086). Running Buffer: Tris-Glycine 1× (pour in the cell up to the writing “2 gels”). • Run at 90 V for 1 hour (until the gel front reaches the green line of cell). • Semi-dry transfer with Trans-Blot® Turbo™ Blotting System from Bio-Rad Laboratories (Trans-Blot® Turbo™ RTA midi PVDF transfer kit Cat. No1704275). • Activate PVDF membrane in methanol for 5 minutes and then wet in Trans-Blot® Turbo™ transfer buffer. • Wet stacks in transfer buffer. • Transfer at 23 V 1.3 A for 7 minutes. • Blocking buffer: 5% Non-Fat milk in TBST (tween 0.1%) 1 hour at room temperature. • Cut the membranes to get Ac-His 3 at 17 kDa and p300 at 300 kDa. • Incubate with primary antibodies overnight at 4° C. • The day after, make 3 washes in TBST (Tween 0.1%) of 10 minutes. • Incubate with secondary antibody at room temperature for 1 hour. • Make 3 washes in TBST (Tween 0.1%) of 5 minutes. • Incubate membranes with ECL (SuperSignal West Dura Extended Duration Substrate from ThermoFisher) for 5 minutes at room temperature. • Acquire the image with ChemiDoc Odyssey Fc 2 minutes.
To detect total H3 (loading control), strip the membranes with Restore™ Western Blot Stripping Buffer according to the manufacturer protocol.
Various compounds were tested for enzymatic activity with respect to Lys 18 and Lys 27. EC50 is indicated for Activators and IC50 for inhibitors respectively.
FIGS. 1A to 25B are graphs showing the lysine residue acetylation as a function of concentration for the compounds set forth in Table 3. The shaded area corresponds to the average values of lysine residue acetylation (continuous line) and their standard error range measured in the absence of compound and DMSO. The number of replicates is represented by “n”.

[1] = Stability in human liver microsomes; type: in vitro ADME; details: for microsomal CLint at 1 μM / half-life at 1 μM: both sexes, human, liver microsomes, pH 7.4, human liver microsomes
Protocol: Some compounds were tested for stability in human liver microsomes as shown below in Table 2.
Mixed-gender human liver microsomes (Lot #1010420) were purchased from XenoTech. The reaction mixture, minus NADPH, was prepared as described below. The test article was added into the reaction mixture at a final concentration of 1 μM. The control compound, testosterone, was run simultaneously with the test article in a separate reaction. An aliquot of the reaction mixture (without cofactor) was equilibrated in a shaking water bath at 37° C. for 3 minutes. The reaction was initiated by the addition of the cofactor, and the mixture was incubated in a shaking water bath at 37° C. Aliquots (100 μL) were withdrawn at 0, 10, 20, 30, and 60 minutes. Test article and testosterone samples were immediately combined with 400 μL of ice-cold 50/50 acetonitrile (ACN)/H2O containing 0.1% formic acid and internal standard to terminate the reaction. The samples were then mixed and centrifuged to precipitate proteins. All samples were assayed by LC-MS/MS using electrospray ionization. Analytical conditions are outlined in Appendix 1. The peak area response ratio (PARR) to internal standard was compared to the PARR at time 0 to determine the percent remaining at each time point. Half-lives and clearance were calculated using GraphPad software, fitting to a single-phase exponential decay equation.
Liver Microsomes 0.5 mg/mL NADPH (cofactor) 1 mM
Potassium Phosphate, pH 7.4 100 mM
Intrinsic clearance (CLint) was calculated based on CLint=k/P, where k is the elimination constant and P is the protein concentration in the incubation.

[2] = compound in DMSO, read-out: H3-Lys 18 EC50
[3] = compound in DMSO, read-out: H3-Lys 27 EC50

| Structure (SMILES) | H3-Lys 27 EC50 (p300; compound in DMSO) | H3-Lys 27 IC50 (p300; compound in DMSO) | H3-Lys 18 EC50 (p300; compound in DMSO) | H3-Lys 18 IC50 (p300; compound in DMSO) | other results |
| --- | --- | --- | --- | --- | --- |
| CC(C)Oc1cccc(OCCN(C)C)c1C(=O)Nc1ccc(Cl)c(C(F)(F)F)c1 [RA010143 HCl] | NO ACTIVITY | NO ACTIVITY | – | – | – |
| CCOc1cccc(OCC)c1C(=O)Nc1ccc(Cl)c(C(F)(F)F)c1 [RA010171] | – | – | – | – | EC50 (p300; [2]): 141 nM |
| CCOc1cccc(O)c1C(=O)Nc1cccc(C(F)(F)F)c1 [RA010160] | – | – | – | – | EC50 (p300; [2]): 146 nM; EC50 (p300; [3]): 533 nM |
| CCOc1ccccc1C(=O)N(CCN(C)C)c1ccc(Cl)c(C(F)(F)F)c1 [RA013886] | NO ACTIVITY | NO ACTIVITY | NO ACTIVITY | NO ACTIVITY | – |
| CCCOc1cccc(OCCN(C)C)c1C(=O)Nc1ccc(Cl)c(C(F)(F)F)c1 [RA013938] | NO ACTIVITY | NO ACTIVITY | NO ACTIVITY | NO ACTIVITY | – |
| CCOc1cccc(OCCO)c1C(=O)Nc1ccc(Cl)c(C(F)(F)F)c1 [RA010146] | NO ACTIVITY | NO ACTIVITY | NO ACTIVITY | NO ACTIVITY | – |
| CCOc1cccc(OCCNC)c1C(=O)Nc1ccc(Cl)c(C(F)(F)F)c1 [RA013894] | NO ACTIVITY | NO ACTIVITY | NO ACTIVITY | NO ACTIVITY | – |
| CCOc1cccc(OCCN(C)C)c1-c1nc2cc(Cl)c(C(F)(F)F)cc2[nH]1 [RA013012] | NO ACTIVITY | NO ACTIVITY | NO ACTIVITY | NO ACTIVITY | – |
| CN(C)CCOc1cccc(O)c1C(=O)Nc1ccc(Cl)c(C(F)(F)F)c1 [RA013905] | NO ACTIVITY | NO ACTIVITY | NO ACTIVITY | NO ACTIVITY | – |
| CN(C)CCOc1cccc(F)c1C(=O)Nc1ccc(Cl)c(C(F)(F)F)c1 [RA010162] | NO ACTIVITY | NO ACTIVITY | NO ACTIVITY | NO ACTIVITY | – |
| CCOc1cccc(OCCN(C)C)c1NC(=O)c1ccc(Cl)c(C(F)(F)F)c1 [RA013919] | NO ACTIVITY | NO ACTIVITY | – | – | – |
| CCOc1cccc(OCCN(C)C)c1C(=O)Nc1cccc(C(F)(F)F)c1 [RA013928] | – | – | NO ACTIVITY | NO ACTIVITY | – |
| COc1cccc(OCCN(C)C)c1C(=O)Nc1ccc(Cl)c(C(F)(F)F)c1 [RA010900 HCl] | NO ACTIVITY | NO ACTIVITY | NO ACTIVITY | NO ACTIVITY | EC50 (p300; compound in H2O, read-out: H3-Lys 18 EC50): 117 nM; EC50 (p300; compound in H2O, read-out: H3-Lys 27 EC50): 44 nM |
| CCOc1cccc(OCCOC)c1C(=O)Nc1ccc(Cl)c(C(F)(F)F)c1 [RA010155] | NO ACTIVITY | NO ACTIVITY | – | – | EC50 (p300; [2]): 129 nM |
| CCOc1ccnc(OCCN(C)C)c1C(=O)Nc1ccc(Cl)c(C(F)(F)F)c1 [RA013005] | – | – | – | – | microsomal CLint at 1 μM ([1]; calculated value printed in parentheses behind the bound, read-out: CLint, value in parentheses): 188 µL/min/mg; half-life at 1 μM ([1]; fitted value printed in parentheses behind the bound, read-out: Half-life, value in parentheses): 7.36 min; microsomal CLint at 1 μM ([1]; read-out: CLint): > 139 µL/min/mg; half-life at 1 μM ([1]; read-out: Half-life): < 10 min; % Remaining of Initial (n = 1) 0 min ([1]; human liver microsomes, test article 1 μM, 0 min): 100%; % Remaining of Initial (n = 1) 10 min ([1]; human liver microsomes, test article 1 μM, 10 min): 40.5%; % Remaining of Initial (n = 1) 20 min ([1]; human liver microsomes, test article 1 μM, 20 min): 14.1%; % Remaining of Initial (n = 1) 30 min ([1]; human liver microsomes, test article 1 μM, 30 min): 4.97%; % Remaining of Initial (n = 1) 60 min ([1]; human liver microsomes, test article 1 μM, 60 min): <1.00%; EC50 (p300; [2]): 76.5 nM; EC50 (p300; [3]): 594 nM |
| CCCOc1cccc(O)c1C(=O)Nc1ccc(Cl)c(C(F)(F)F)c1 [RA013931] | NO ACTIVITY | NO ACTIVITY | NO ACTIVITY | NO ACTIVITY | – |
| CCOc1cccc(OCCN(C)C)c1C(=O)Nc1ccc(Cl)cn1 [RA013917] | – | – | NO ACTIVITY | – | EC50 (p300; [3]): 15.9 nM |
| CCOc1cccc(N(C)CCN(C)C)c1C(=O)Nc1ccc(Cl)c(C(F)(F)F)c1 [RA010163] | NO ACTIVITY | NO ACTIVITY | NO ACTIVITY | NO ACTIVITY | – |
| CCOc1cccc(OCCN(C)C)c1C(=O)Nc1cccc(C(F)(F)F)c1 [RA010168] | NO ACTIVITY | NO ACTIVITY | – | – | – |
